Measured values reported in the supplement of paper PMC10307832.

Tests used:
Test in all cases: relative viability (nuclei count vs DMSO), 5 days (fraction); higher = more cells survive
[1] = compound: C1=CC=C(C(=C1)C2=CC=C(C=C2)C3=CSC4=C3C(=C(C(=O)N4)C#N)O)O + O=C(CCCCCCC(=O)Nc1ccccc1)NO [Vorinostat] (partner 1 µM)
In short: (§1)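 Lung cancer cell lines were pin-tool dosed in 1536-well plates on the day after seeding, with either a lone drug or a fixed anchor-drug dose plus five library-drug doses (not always all listed) in √10 steps. Nuclei were counted on 4× images after 5 days. Relative viability is the ratio of treated-well to vehicle-well nuclei counts, with each value a median of duplicate plates.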

[2] = compound: C1=CC=C(C(=C1)C2=CC=C(C=C2)C3=CSC4=C3C(=C(C(=O)N4)C#N)O)O + Cc1cc(Nc2cc(N3CCN(C)CC3)nc(Sc3ccc(NC(=O)C4CC4)cc3)n2)n[nH]1 [Tozasertib] (partner 0.1 µM)
In short: as §1

TGX 221 + Linsitinib = compound: CC1=CN2C(=O)C=C(N=C2C(=C1)C(C)NC3=CC=CC=C3)N4CCOCC4 [TGX 221] + C[C@]1(O)C[C@@H](c2nc(-c3ccc4ccc(-c5ccccc5)nc4c3)c3c(N)nccn32)C1 [Linsitinib] (partner 1 µM)
In short: as §1

[3] = compound: O=C(CCCCCCNC(=O)c1cnc(N(c2ccccc2)c2ccccc2)nc1)NO [Ricolinostat] + N=C(N)NC(=N)NCCc1ccccc1 [Phenformin] (partner 250 µM)
In short: as §1

Cell Line	relative viability ([1]; first compound 0.08 µM)	relative viability ([1]; first compound 0.253 µM)	relative viability ([1]; first compound 0.8 µM)	relative viability ([1]; first compound 2.53 µM)	relative viability ([1]; first compound 8 µM)	relative viability ([2]; first compound 0.08 µM)	relative viability ([2]; first compound 0.253 µM)	relative viability ([2]; first compound 0.8 µM)	relative viability ([2]; first compound 2.53 µM)	relative viability ([2]; first compound 8 µM)	relative viability (TGX 221 + Linsitinib; first compound 0.08 µM)	relative viability (TGX 221 + Linsitinib; first compound 0.253 µM)	relative viability (TGX 221 + Linsitinib; first compound 0.8 µM)	relative viability (TGX 221 + Linsitinib; first compound 2.53 µM)	relative viability (TGX 221 + Linsitinib; first compound 8 µM)	relative viability ([3]; first compound 0.08 µM)	relative viability ([3]; first compound 0.253 µM)	relative viability ([3]; first compound 0.8 µM)	relative viability ([3]; first compound 2.53 µM)
LOU-NH91	0.892	0.926	0.888	0.886	0.848	0.669	0.715	0.612	0.637	0.645	0.974	0.912	0.931	0.917	0.794	0.516	0.726	0.713	0.744
NCI-H3122	1	0.992	1.14	1.09	0.89	0.355	0.451	0.451	0.507	0.419	1.01	1.05	1	1.02	0.986		0.378	0.369	0.318
HOP-62	0.586	0.856	0.607	0.647	0.522	0.363	0.363	0.337	0.335	0.335	1.06	1.09	1.02	1.01	0.889	0.586	0.657	0.623	0.503
LCLC-103H	0.722	0.81	0.707	0.767	0.728	0.481	0.478	0.592	0.503	0.457	1.11	1.12	0.93	0.846	1.2	0.252	0.323	0.371	0.325
LU99A	0.501	0.478	0.702	0.49	0.425	0.274	0.256	0.275	0.298	0.279	0.478	0.481	0.512	0.536	0.492	0.738	0.705	0.716	0.597
HCC-44	1.15	1.12	1.13	1.08	1.06		1.36	0.876	1.03	0.744	0.646	0.53	0.62	0.464	0.359	0.186	0.265	0.169	0.166
NCI-H2405	0.983		0.956	0.955	0.999	0.718	0.797	0.733	0.725	0.704	0.595	0.698	0.639	0.697	0.573	0.356	0.44	0.416	0.358
PC-14	0.64	0.863	0.563	0.71	0.567	0.63	0.753	0.542	0.556	0.436	0.95	0.866	0.898	0.904	0.874	0.364	0.532	0.477	0.37
COR-L23	0.404	0.477	0.409	0.38	0.379	0.195	0.213	0.199	0.174	0.153	0.883	0.847	0.964	0.732	0.881	0.363	0.379	0.402	0.227
NCI-H1666	0.905	1.04	0.993	1.03	0.984	0.556	0.658	0.577	0.598	0.553	0.635	0.597	0.676	0.59	0.526	0.481	0.572	0.547	0.521
